Reference: patent publication US6730693B2, “Double salts of fumaric acid with a carnitine and an amino acid and food supplements, dietary supplements and drugs containing same” (Sigma-Tau Industrie Farmaceutiche Riunite S.p.A., priority 2000, dated 2004)
Where a name gives a salt, the structure may show the parent alone.

Tests used:
[1] = Hygroscopicity of the isolated solid as observed on preparation; assay type: physicochemical; settings: isolated solid after preparation
Description: The mixture was then filtered under vacuum and the solid thus obtained was dried in a thermostatic oven at 30° C. overnight.
The mixture was then filtered under vacuum and the solid thus obtained dried in a thermostatic oven at 30° C. overnight.
8 g (0.05 moles) of L-carnitine inner salt, 5.8 g (0.05 moles) of fumaric acid and 6.6 g of L-ornithine were dissolved in 7.5 mL of water at 60° C. and the resulting thick, clear mass was slowly poured into a solution of acetone (800 mL) under vigorous mechanical stirring.

[2] = Weight increase and appearance after exposure to relative humidity (hygroscopicity test); assay type: physicochemical; settings: for 24 hours; for Weight increase %: exposure to a relative humidity of 60 ±5% at 25%; for Appearance: exposure to a relative humidity of 60 ±5%

Row | Molecule | Hygroscopicity of the solid obtained [1] | Weight increase % [2] [%] | Appearance [2]
1 | isovaleryl L-carnitine and lysine fumarate | non-hygroscopic | – | –
2 | L-carnitine and lysine fumarate | non-hygroscopic | – | –
3 | L-Carnitine and Creatine Fumarate [Ex. 1 (BS/231)] | non-hygroscopic | 0.18 | no variation
4 | CC(C)CC(=O)O[C@H](CC(=O)[O-])C[N+](C)(C)C [Isovaleryl L-carnitine inner salt] | – | 20 | deliquescent
5 | C[N+](C)(C)C[C@H](O)CC(=O)[O-].O=C(O)/C=C/C(=O)O [L-carnitine fumarate] | highly hygroscopic | – | –
6 | Isovaleryl L-Carnitine and Creatine Fumarate [Ex. 2 (BS/232)] | non-hygroscopic | 0.19 | no variation
7 | CN(CC(=O)O)C(=N)N [Anhydrous creatine] | – | 3 | flowable
8 | C[N+](C)(C)C[C@H](O)CC(=O)[O-] [L-carnitine inner salt] | – | 19 | deliquescent
